Patent US8247211B2, “Glycopeptide antibiotics” (American Cyanamid Company, priority 2001, dated 2012)
In brackets after ≈: the same amount, converted by molar mass.

Assays:
Assay in all cases: In vitro antibacterial evaluation: minimum inhibitory concentration (MIC), broth dilution method
Format in all cases: cell-based
[1] = tested on: Streptococcus sp.; settings: 18 hours at 35° C.
Method in brief: (§1)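 Using Muller-Hinton II […] and an inoculum of 5×10^5 CFU/mL, antibiotic dilutions from 64 down to 0.06 μg/mL were tested following NCCLS M7-A2. The MIC is the lowest concentration inhibiting growth, including in methicillin-, penicillin- or vancomycin-resistant clinical isolates.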

[2] = tested on: Enterococcus sp.; settings: 18 hours at 35° C.
Method in brief: as §1

[3] = tested on: Staphylococcus sp.
Method in brief: as §1

[4] = tested on: Escherichia coli; settings: 18 hours at 35° C.
Method in brief: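 Broth dilution per NCCLS M7-A2 in Muller-Hinton II […], inoculum 5×10^5 CFU/mL, antibiotic tested over 64-0.06 μg/mL. MIC is taken as the lowest concentration that inhibits growth. Panel includes recent clinical isolates resistant to methicillin, penicillin and/or vancomycin.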

[5] = broth dilution, inoculum 5×10^5 CFU/mL

MIC Streptococcus agalactiae (GC 4564) ([1]; Streptococcus agalactiae (GC 4564)): >64 µg/mL
MIC Streptococcus pneumoniae (ATCC 6301) ([1]; Streptococcus pneumoniae (ATCC 6301)): 64 µg/mL (≈ 42.4 µM)
MIC Streptococcus pneumoniae (GC 1894) ([1]; Streptococcus pneumoniae (GC 1894)): 64 µg/mL (≈ 42.4 µM)
MIC Streptococcus pneumoniae (GC 4565) ([1]; Streptococcus pneumoniae (GC 4565)): 64 µg/mL (≈ 42.4 µM)
MIC Streptococcus pyogenes (GC 4563) ([1]; Streptococcus pyogenes (GC 4563)): 32 µg/mL (≈ 21.2 µM)
MIC Streptococcus agalactiae (GC 4564) [1, 5]: >64 µg/mL
MIC Streptococcus pneumoniae (ATCC 6301) [1, 5]: 64 µg/mL (≈ 42.4 µM)
MIC Streptococcus pneumoniae (GC 1894) [1, 5]: 64 µg/mL (≈ 42.4 µM)
MIC Streptococcus pneumoniae (GC 4565) [1, 5]: 64 µg/mL (≈ 42.4 µM)
MIC Streptococcus pyogenes (GC 4563) [1, 5]: 32 µg/mL (≈ 21.2 µM)
MIC Enterococcus avium (GC 4558) ([2]; Enterococcus avium (GC 4558)): 32 µg/mL (≈ 21.2 µM)
MIC Enterococcus faecalis (ATCC 29212) ([2]; Enterococcus faecalis (ATCC 29212)): >64 µg/mL
MIC Enterococcus faecalis (GC 2242) ([2]; Enterococcus faecalis (GC 2242)): >64 µg/mL
MIC Enterococcus faecalis (GC 2691) ([2]; Enterococcus faecalis (GC 2691)): >64 µg/mL
MIC Enterococcus faecalis (GC 3059) ([2]; Enterococcus faecalis (GC 3059)): >64 µg/mL
MIC Enterococcus faecalis (GC 4552) ([2]; Enterococcus faecalis (GC 4552)): >64 µg/mL
MIC Enterococcus faecalis (GC 4553) ([2]; Enterococcus faecalis (GC 4553)): 64 µg/mL (≈ 42.4 µM)
MIC Enterococcus faecalis (GC 4554) ([2]; Enterococcus faecalis (GC 4554)): >64 µg/mL
MIC Enterococcus faecalis (GC 6189) ([2]; Enterococcus faecalis (GC 6189)): >64 µg/mL
MIC Enterococcus faecium (GC 2243) ([2]; Enterococcus faecium (GC 2243)): 64 µg/mL (≈ 42.4 µM)
MIC Enterococcus faecium (GC 4556) ([2]; Enterococcus faecium (GC 4556)): >64 µg/mL
MIC Enterococcus faecium (GC 4557) ([2]; Enterococcus faecium (GC 4557)): 8 µg/mL (≈ 5.3 µM)
MIC Enterococcus avium (GC 4558) [2, 5]: 32 µg/mL (≈ 21.2 µM)
MIC Enterococcus faecalis (ATCC 29212) [2, 5]: >64 µg/mL
MIC Enterococcus faecalis (GC 2242) [2, 5]: >64 µg/mL
MIC Enterococcus faecalis (GC 2691) [2, 5]: >64 µg/mL
MIC Enterococcus faecalis (GC 3059) [2, 5]: >64 µg/mL
MIC Enterococcus faecalis (GC 4552) [2, 5]: >64 µg/mL
MIC Enterococcus faecalis (GC 4553) [2, 5]: 64 µg/mL (≈ 42.4 µM)
MIC Enterococcus faecalis (GC 4554) [2, 5]: >64 µg/mL
MIC Enterococcus faecalis (GC 6189) [2, 5]: >64 µg/mL
MIC Enterococcus faecium (GC 2243) [2, 5]: 64 µg/mL (≈ 42.4 µM)
MIC Enterococcus faecium (GC 4556) [2, 5]: >64 µg/mL
MIC Enterococcus faecium (GC 4557) [2, 5]: 8 µg/mL (≈ 5.3 µM)
MIC Staphylococcus aureus (ATCC 29213) ([3]; strain ATCC 29213): >64 µg/mL
MIC Staphylococcus aureus (GC 1131) ([3]; strain GC 1131): >64 µg/mL
MIC Staphylococcus aureus (GC 3051) ([3]; strain GC 3051): >64 µg/mL
MIC Staphylococcus aureus (GC 3053) ([3]; strain GC 3053): >64 µg/mL
MIC Staphylococcus aureus (GC 4541) ([3]; strain GC 4541): 64 µg/mL (≈ 42.4 µM)
MIC Staphylococcus aureus (GC 4542) ([3]; strain GC 4542): >64 µg/mL
MIC Staphylococcus aureus-SMITH (GC 4543) ([3]; strain GC 4543): >64 µg/mL
MIC Staphylococcus aureus (GC 4544) ([3]; strain GC 4544): >64 µg/mL
MIC Staphylococcus aureus (GC 4545) ([3]; strain GC 4545): 64 µg/mL (≈ 42.4 µM)
MIC Coagulase Negative Staphylococcus (GC 4547) ([3]; strain GC 4547): 32 µg/mL (≈ 21.2 µM)
MIC Coagulase Negative Staphylococcus (GC 4548) ([3]; strain GC 4548): 64 µg/mL (≈ 42.4 µM)
MIC Coagulase Negative Staphylococcus (GC 4549) ([3]; strain GC 4549): 64 µg/mL (≈ 42.4 µM)
MIC Coagulase Negative Staphylococcus (GC 4551) ([3]; strain GC 4551): >64 µg/mL
MIC Coagulase Negative Staphylococcus (GC 6257) ([3]; strain GC 6257): 64 µg/mL (≈ 42.4 µM)
MIC Escherichia coli (ATCC 25922) ([4]; Escherichia coli (ATCC 25922)): 64 µg/mL (≈ 42.4 µM)
MIC Escherichia coli (GC 4559) ([4]; Escherichia coli (GC 4559)): 64 µg/mL (≈ 42.4 µM)
MIC Escherichia coli (GC 4560) ([4]; Escherichia coli (GC 4560)): 8 µg/mL (≈ 5.3 µM)
SMILES: CC(c1ccccc1)C1NC(=O)CNC(=O)C(CO)NC(=O)C(C(O)C2CNC(=N)N2C2OC(CO)C(O)C(O)C2O)NC(=O)C(C(O)C2CNC(=N)N2)NC(=O)C(Cc2ccc(OC3OC(CO)C(OC4OC5COC(c6ccccc6)OC5C(O)C4O)C(O)C3O)c(I)c2)NC1=O (stereo not drawn) [Example 196, Cyclo[glycyl-β-methylphenylalanyl-O-[4-O-(4,6-O-benzylidenehexopyranosyl)hexopyranosyl]-3-iodotyrosyl-3-(2-iminoimidazolidin-4-yl)seryl-3-(3-hexopyranosyl-2-iminoimidazolidin-4-yl)-serylseryl]]
MIC Staphylococcus haemolyticus (GC 4546) ([3]; strain GC 4546): 32 µg/mL (≈ 21.2 µM)
